Experimental data: publication PMC11994961, “In Vivo pharmacokinetic interactions of ribociclib with rivaroxaban and apixaban in rats: implications for increased drug exposure and dose adjustments” (Frontiers in Pharmacology, 2025)
“Also recorded” adds a separate entry of the source. Read-outs that look alike come from different tables or passages of the source.

Key:
[1] = parameters: method as in Samant et al., 2020; conditions: ref Samant et al., 2020, cited from earlier work
CYP3A4 = test system: CYP3A4; parameters: method as in Sorf et al., 2018; conditions: in vitro; ref Sorf et al., 2018; read-out: half-maximal inhibitory concentration (IC50) against CYP3A4; cited from earlier work
[2] = Pharmacokinetic study of ribociclib in rats, alone and after rivaroxaban or apixaban (UPLC-MS/MS plasma levels); format: in vivo, Sprague-Dawley rats; conditions: for Cmax / AUC(0-inf) / AUC(0-t) / Tmax / half-life / CL/F / MRT inf / MRT last / Vd/F: Sprague-Dawley, rat, plasma, 60 mg/kg; for CL/F: read-out: CLz/F (converted); for MRT inf: read-out: MRT0- ∞; for MRT last: read-out: MRT0-t; for Vd/F: read-out: Vz/F
Method: Experimental animals were randomly divided into nine groups (n = 6, Table 1). Ribociclib was suspended in methylcellulose (MC), rivaroxaban was prepared in hydroxypropyl methylcellulose (HPMC), and apixaban was suspended in 5% DMSO in water. To achieve steady-state blood concentrations, a drug typically requires five to seven half-lives. Based on this principle, ribociclib was administered orally for eight consecutive days, while rivaroxaban and apixaban were administered orally for five consecutive days to ensure steady-state concentrations were reached before further analysis. Approximately 0.1 mL of blood was collected into heparinized tubes via the orbitalat specified time points before and after the final drug administration. […] Blood samples were centrifuged at 3,500 rpm for 10 min, and the supernatant was collected and stored at −80°C until processing for UPLC-MS/MS. Apixaban and rivaroxaban concentrations in plasma samples were determined using our previously established UPLC-MS/MS method ([Wang et al., 2023]). Ribociclib concentrations were quantified using an LC-30A UPLC system (Shimadzu, Kyoto, Japan) coupled with a Sciex Triple Quad 5500 tandem quadrupole mass spectrometer (AB Sciex, Framingham, MA, United States) equipped with an electrospray ionization interface. Chromatographic separation was performed using a Welch Boltimate column (2.1 mm × 100 mm, 2.7 μm) maintained at 40°C. The mobile phase was composed of water containing 0.1% formic acid (phase A) and acetonitrile (phase B). The flow rate was held constant at 0.3 mL/min. […] The injection volume was 1 μL. The mass spectrometer operated in positive ion mode and multiple reaction monitoring (MRM) mode for detection and quantification. The monitored transitions of precursors to product ions were as follows: 441.3→332.1 for ribociclib-d6 and 435.3.→322.1 for ribociclib (Figure 1). The mass spectrometer conditions, including delustering potential (DP) and collision energy (CE) of the compounds, are shown in Table 2. Other parameters of the mass spectrometer were as follows: ion source gas 160.0 psi; ion source gas 2,50.0 psi; curtain gas, 25.0 psi. The source temperature was 500°C and the ion spray voltage was 5,500 V. A 50 µL plasma sample was mixed with 5 µL of the IS working solution, followed by the addition of 150 µL of acetonitrile. The mixture was vortexed for 2 min and then centrifuged at 12,000 rpm for 10 min. Next, 70 µL of the supernatant was collected and mixed with 70 µL of 50% (v/v) of acetonitrile in water. The mixture was vortexed for 1 min, and then 1 µL was injected into the UPLC-MS/MS system for analysis. […] The area under the concentration–time curve (AUC), maximum plasma concentration (Cmax), time to maximum plasma concentration (Tmax), the time required to eliminate half of the plasma drug concentration (t1/2), clearance of drug plasma volume per unit time (CLz/F), apparent volume distribution (Vz/F), mean residence time (MRT) and the absorption rate constant (Ka) are all expressed as mean ± standard deviation (SD). SPSS 25.0 statistical software (SPSS Inc., Chicago, IL, United States) was applied to statistically analyze the mainpharmacokinetic parameters. Shapiro-Wilk test was used to assess whether the data were normally distributed, t test was used for parameters conforming to the normal distribution, and Mann-Whitney U test was used for parameters not conforming to the normal distribution. Statistical comparisons were conducted using a analysis of variance, t-test or nonparametric rank-sum test depending on the data type.

[3] = parameters: method as in Wang et al., 2023; conditions: rats, with almonertinib; ref Wang et al., 2023; cited from earlier work
[4] = parameters: method as in Kvasnicka et al., 2017; conditions: ref Kvasnicka et al., 2017; cited from earlier work
CYP3A4/5 = test system: CYP3A4/5; parameters: method as in Mueck et al., 2013; conditions: ref Mueck et al., 2013; cited from earlier work
CYP2J2 = test system: CYP2J2; parameters: method as in Mueck et al., 2013; conditions: ref Mueck et al., 2013; cited from earlier work
[5] = parameters: method as in Hindley et al., 2023; conditions: ref Hindley et al., 2023; cited from earlier work
[6] = po, rats, RIBO 60 mg/kg after API 0.5 mg/kg for 5 days
[7] = po, rats, RIBO 60 mg/kg after RIVA 2 mg/kg for 5 days
[8] = po, rats, oral RIBO 60 mg/kg alone

Question: Which “reduction of AUC” value ([1]; with rifampicin, a strong CYP3A inducer) does the source give for `CN(C)C(=O)c1cc2cnc(Nc3ccc(N4CCNCC4)cn3)nc2n1C1CCCC1` [RIBO, ribociclib] here?
Answer: The value was 89%.

Question: And the “increase of AUC” value ([1]; with ritonavir, a strong CYP3A inhibitor)?
Answer: The value was 3.2 fold.

Question: And the Cmax ([2]; oral, rats administered 60 mg/kg)?
Answer: Its Cmax is roughly 1500 ng/mL.

Question: What about the AUC(0-inf) [2, 6] of the same molecule?
Answer: Its AUC(0-inf) is 25200 ng·h/mL.

Question: What about the AUC(0-t) [2, 6] of the same molecule?
Answer: Its AUC(0-t) is 24500 ng·h/mL.

Question: What about the Cmax [2, 6] of the same molecule?
Answer: Its Cmax is 2080 ± 400 ng/mL.

Question: What about the Tmax [2, 6] of the same molecule?
Answer: Its Tmax is 4.33 ± 1.37 h.

Question: What about the half-life [2, 6] of the same molecule?
Answer: Its half-life is 8.25 ± 2.87 h.

Question: What about the CL/F [2, 6] of the same molecule?
Answer: The CL/F was 40.2 mL/min/kg.

Question: And the MRT inf [2, 6]?
Answer: Its MRT inf is 11 ± 2.83 h.

Question: And the MRT last [2, 6]?
Answer: The MRT last was 9.71 ± 1.15 h.

Question: And the Vd/F [2, 6]?
Answer: Its Vd/F is 28.3 ± 8.33 L/kg.

Question: And the AUC(0-inf) [2, 7]?
Answer: Its AUC(0-inf) is 21500 ng·h/mL.

Question: What about the AUC(0-t) [2, 7] of the same molecule?
Answer: Its AUC(0-t) is 21400 ng·h/mL.

Question: What about the Cmax [2, 7] of the same molecule?
Answer: Its Cmax is 1600 ng/mL.

Question: And the Tmax [2, 7]?
Answer: Its Tmax is 4.33 ± 0.52 h.

Question: What about the half-life [2, 7] of the same molecule?
Answer: The half-life was 6.13 ± 1.41 h.

Question: What about the CL/F [2, 7] of the same molecule?
Answer: Its CL/F is 47.2 mL/min/kg.

Question: What about the MRT inf [2, 7] of the same molecule?
Answer: The MRT inf was 10.1 ± 2.16 h.

Question: What about the MRT last [2, 7] of the same molecule?
Answer: Its MRT last is 9.77 ± 1.74 h.

Question: And the Vd/F [2, 7]?
Answer: Its Vd/F is 24.7 ± 4.85 L/kg.

Question: And the AUC(0-inf) [2, 8]?
Answer: Its AUC(0-inf) is 20800 ng·h/mL.

Question: And the AUC(0-t) [2, 8]?
Answer: Its AUC(0-t) is 20300 ng·h/mL.

Question: And the Cmax [2, 8]?
Answer: The Cmax was 1620 ng/mL.

Question: What about the Tmax [2, 8] of the same molecule?
Answer: Its Tmax is 2.4 ± 0.89 h.

Question: And the half-life [2, 8]?
Answer: Its half-life is 7.87 ± 4.17 h.

Question: What about the CL/F [2, 8] of the same molecule?
Answer: Its CL/F is 49.3 mL/min/kg.

Question: And the MRT inf [2, 8]?
Answer: Its MRT inf is 11.8 ± 4.35 h.

Question: And the MRT last [2, 8]?
Answer: Its MRT last is 10.1 ± 1.79 h.

Question: And the Vd/F [2, 8]?
Answer: The Vd/F was 35.5 ± 26.3 L/kg.

Question: What about the “changes in the pharmacokinetic parameters” value ([2]; rats, RIBO 60 mg/kg after multiple doses of apixaban vs alone) of the same molecule?
Answer: The value was “no significant changes; also recorded: did not alter”.

Question: What about the “changes in the pharmacokinetic parameters” value ([2]; rats, RIBO 60 mg/kg after multiple doses of rivaroxaban vs alone) of the same molecule?
Answer: Its value is “no significant changes; also recorded: did not alter”.

Question: What about the “slight increase in Cmax” value ([2]; rats, RIBO 60 mg/kg, apixaban group vs alone) of the same molecule?
Answer: The value was “not statistically significant”.

Question: For `O=C(NC[C@H]1CN(c2ccc(N3CCOCC3=O)cc2)C(=O)O1)c1ccc(Cl)s1` [RIVA, rivaroxaban], which “increase in AUC” value [3] is on record?
Answer: Its value is “over three fold increases”.

Question: What about the “increase in Cmax” value [3] of the same molecule?
Answer: The value was “over three fold increases”.

Question: What about the “time to maximum plasma concentration (Cmax) after administration” value [4] of the same molecule?
Answer: Its value is 2 to 4 h.

Question: What about the “share of total elimination by CYP3A4/5” value (CYP3A4/5) of the same molecule?
Answer: The value was “approximately 18%”.

Question: And the “share of total elimination by CYP2J2” value (CYP2J2)?
Answer: The value was “approximately 14%”.

Question: And the plasma protein binding [5]?
Answer: Its plasma protein binding is “approximately 95%”.
